This is an account of results in patent publication US10858335B2 (Rigel Pharmaceuticals, Inc., priority 2014, dated 2020).

Counter-ions that a name gives are not always drawn.

This test concerns GDF8 signaling (p-SMAD-3 (Ser423/425)). Nature of the test: AlphaScreen SureFire SMAD3 (p-Ser423/425) assay, GDF8-stimulated cells (GDF pSMAD). It counts as cell-based. The settings on record: Mus musculus, MPC-11, MPC11; GDF8-stimulated; p-SMAD3 AlphaScreen; read-out: GDF pSMAD (MPC11) (inhibition of GDF8 signaling). A general note: In Alpha technology, singlet oxygen from a donor bead excites a nearby acceptor bead.
Turning to `Cc1cccc(-c2ncccc2-c2cc(C)c3[nH]ncc3c2)c1` [Compound 176, 7-Methyl-5-(2-m-tolylpyridin-3-yl)-1H-indazole], the IC50 amounted to 0.057 µM.
Take `Cc1cc(-c2ncccc2-c2ccc3nc[nH]c3c2)ccc1F` [Compound 177, 6-(2-(4-Fluoro-3-methylphenyl)pyridin-3-yl)-1H-benzo[d]imidazole]: the IC50 was determined as 0.363 µM.
Turning to `Cc1cccc(-c2ncccc2-c2ccc3nc[nH]c3c2)c1` [Compound 178, 6-(2-m-Tolylpyridin-3-yl)-1H-benzo[d]imidazole], the IC50 came to 0.187 µM.
With `Cc1cc(-c2ncccc2-c2ccc3ncoc3c2)ccc1F` [Compound 180, 6-(2-(4-Fluoro-3-methylphenyl)pyridin-3-yl)benzo[d]oxazole] the figure was 0.422 µM; with `Cc1cccc(-c2ncccc2-c2ccc3ncoc3c2)c1` [Compound 181, 6-(2-m-Tolylpyridin-3-yl)benzo[d]oxazole], 0.539 µM.
For `CCn1ncc2cc(-c3cccnc3-c3ccc(F)c(C)c3)ccc21` [Compound 184, 1-Ethyl-5-(2-(4-fluoro-3-methylphenyl)pyridin-3-yl)-1H-indazole] the value was 12.9 µM.
For `CCn1ncc2cc(-c3cccnc3-c3cccc(C)c3)ccc21` [Compound 185, 1-Ethyl-5-(2-m-tolylpyridin-3-yl)-1H-indazole] the value was 8.86 µM.
On to `Cc1cccc(-c2ncccc2-c2ccc3ncn(C)c3c2)c1` [Compound 186, 1-methyl-6-(2-m-tolylpyridin-3-yl)-1H-benzo[d]imidazole], for which the IC50 amounted to 0.3 µM.
As for `Cc1cc(-c2ncccc2-c2ccc3ncn(C)c3c2)ccc1F` [Compound 187, 6-(2-(4-Fluoro-3-methylphenyl)pyridin-3-yl)-1-methyl-1H-benzo[d]imidazole], the IC50 was 0.228 µM.
For `Cc1cc(-c2ncccc2-c2ccc3ncnn3c2)ccc1F` [Compound 191, 6-(2-(4-Fluoro-3-methylphenyl)pyridin-3-yl)-[1,2,4]triazolo[1,5-a]pyridine] the value was 0.663 µM.
For `Cc1cccc(-c2ncccc2-c2ccc3ncnn3c2)c1` [Compound 192, 6-(2-m-Tolylpyridin-3-yl)-[1,2,4]triazolo[1,5-a]pyridine] the value was 0.347 µM; for `c1cc(-c2ncccc2-c2ccc3nccn3c2)cc(C2CC2)c1` [Compound 193, 6-(2-(3-Cyclopropylphenyl)pyridin-3-yl)H-imidazo[1,2-a]pyridine], 0.243 µM.
For `c1cc(-c2ncccc2-c2ccc3ncsc3c2)cc(C2CC2)c1` [Compound 194, 6-(2-(3-Cyclopropylphenyl)pyridin-3-yl)benzo[d]thiazole] the value was 0.149 µM; for `FC(F)(F)c1cccc(-c2ncccc2-c2ccc3[nH]ncc3c2)c1` [Compound 197, 5-(2-(3-(Trifluoromethyl)phenyl)pyridin-3-yl)-1H-indazole], 0.359 µM; for `FC(F)(F)c1cccc(-c2ncccc2-c2cnc3[nH]ncc3c2)c1` [Compound 198, 5-(2-(3-(Trifluoromethyl)phenyl)pyridin-3-yl)-1H-pyrazolo[3,4-b]pyridine], 0.44 µM.
Regarding `FC(F)(F)c1cccc(-c2ncccc2-c2ccc3nccn3c2)c1` [Compound 199, 6-(2-(3-(Trifluoromethyl)phenyl)pyridin-3-yl)H-imidazo[1,2-a]pyridine], the IC50 turned out to be 1.16 µM.
For `Cn1cnc2ccc(-c3cccnc3-c3cccc(C4CC4)c3)cc21` [Compound 200, 6-(2-(3-Cyclopropylphenyl)pyridin-3-yl)-1-methyl-1H-benzo[d]imidazole] the value was 0.26 µM; for `Cc1cc(-c2ncccc2-c2ccc3ccncc3c2)ccc1F` [Compound 209, 7-(2-(4-Fluoro-3-methylphenyl)pyridin-3-yl)isoquinoline], 18.2 µM.
For `Cc1cccc(-c2ncccc2-c2ccc3ccncc3c2)c1` [Compound 210, 7-(2-m-Tolylpyridin-3-yl)isoquinoline] the value was 12.7 µM; for `Cc1cccc(-c2ncccc2-c2ccc3ncn(CCCO)c3c2)c1` [compound 38], 3.23 µM.
For `Cc1cccc(-c2ncccc2-c2ccc3ncn(C(C)C)c3c2)c1` [compound 47] the value was 8.23 µM; for `Cc1cccc(-c2ncccc2-c2ccc3[nH]ncc3c2)n1` [compound 116, 5-(2-(6-Methylpyridin-2-yl)pyridin-3-yl)-1H-indazole], 0.0326 µM; for `Cc1cc(-c2ncccc2-c2ccc3c(cnn3C(=O)OC[C@@H](N)Cc3c[nH]c4ccccc34)c2)ccc1F` [compound 179, (S)-2-Amino-3-(1H-indol-3-yl)propyl 5-(2-(4-fluoro-3-methylphenyl)pyridin-3-yl)-1H-indazole-1-carboxylate Trifluoroacetic Acid Salt], 0.337 µM.
Regarding `COC(=O)c1cc(-c2cccnc2-c2ccc(F)c(C)c2)cc2cn[nH]c12` [compound 190, Methyl 5-(2-(4-fluoro-3-methylphenyl)pyridin-3-yl)-1H-indazole-7-carboxylate], the IC50 was 1.55 µM.
With `Cc1cc(-c2ncccc2-c2cc(C(=O)O)c3[nH]ncc3c2)ccc1F` [compound 195, 5-(2-(4-Fluoro-3-methylphenyl)pyridin-3-yl)-1H-indazole-7-carboxylic acid] the figure was 9.52 µM; with `Fc1ccc(-c2ncccc2-c2ccc3[nH]ncc3c2)cc1C1CC1` [compound 211, 5-(2-(3-Cyclopropyl-4-fluorophenyl)pyridin-3-yl)-1H-indazole], 0.198 µM; with `Cc1cc(-c2ncc(NC3CC3)cc2-c2ccc3[nH]ncc3c2)ccc1F` [compound 212, N-Cyclopropyl-6-(4-fluoro-3-methylphenyl)-5-(1H-indazol-5-yl)pyridin-3-amine], 18.4 µM.
With `CC(C)NC(=O)Nc1cnc(-c2cccc(C3CC3)c2)c(-c2ccc3[nH]ncc3c2)c1` [compound 213, 1-(6-(3-Cyclopropylphenyl)-5-(1H-indazol-5-yl)pyridin-3-yl)-3-isopropylurea] the figure was 4.44 µM.
With `Cc1cccc(-c2ncc(NC(=O)NC(C)C)cc2-c2ccc3[nH]ncc3c2)c1` [compound 214, 1-(5-(1H-Indazol-5-yl)-6-(m-tolyl)pyridin-3-yl)-3-isopropylurea] the figure was 2.64 µM; with `Cc1cc(-c2ncc(NC(=O)NC(C)C)cc2-c2ccc3c(cnn3C(=O)NC(C)C)c2)ccc1F` [compound 215, 5-(2-(4-Fluoro-3-methylphenyl)-5-(3-isopropylureido)pyridin-3-yl)-N-isopropyl-1H-indazole-1-carboxamide], 15.7 µM.
Regarding `Fc1ccc(-c2ncccc2-c2ccc3ncccc3n2)cc1C1CC1` [compound 216, 2-(2-(3-cyclopropyl-4-fluorophenyl)pyridin-3-yl)-1,5-naphthyridine], the IC50 was 0.737 µM.
With `Fc1ccc(-c2ncccc2-c2ccc3ncnn3c2)cc1C1CC1` [compound 217, 6-(2-(3-Cyclopropyl-4-fluorophenyl)pyridin-3-yl)-[1,2,4]triazolo[1,5-a]pyridine] the figure was 0.841 µM; with `Fc1ccc(-c2ncccc2-c2ccc3nccn3c2)cc1C1CC1` [compound 218, 6-(2-(3-Cyclopropyl-4-fluorophenyl)pyridin-3-yl)imidazo[1,2-a]pyridine], 0.446 µM; with `Cc1cc(-c2ncc(NC(=O)N3CCOCC3)cc2-c2ccc3nccn3c2)ccc1F` [compound 219, N-(6-(4-Fluoro-3-methylphenyl)-5-(imidazo[1,2-a]pyridin-6-yl)pyridin-3-yl)morpholine-4-carboxamide], 6.77 µM.
Take `CCNC(=O)Nc1cnc(-c2ccc(F)c(C)c2)c(-c2ccc3nccn3c2)c1` [compound 220, 1-Ethyl-3-(6-(4-fluoro-3-methylphenyl)-5-(imidazo[1,2-a]pyridin-6-yl)pyridin-3-yl)urea]: the IC50 came out at 8.62 µM.
For `N#Cc1cnc2ccc(-c3cccnc3-c3ccc(F)c(C4CC4)c3)cn12` [compound 223, 6-(2-(3-Cyclopropyl-4-fluorophenyl)pyridin-3-yl)imidazo[1,2-a]pyridine-3-carbonitrile] the value was 0.707 µM; for `NC(=O)c1cnc2ccc(-c3cccnc3-c3ccc(F)c(C4CC4)c3)cn12` [compound 224, 6-(2-(3-Cyclopropyl-4-fluorophenyl)pyridin-3-yl)imidazo[1,2-a]pyridine-3-carboxamide], 0.621 µM.
In the case of `Cc1cc(-c2ncc(CN3CCOCC3)cc2-c2ccc3nccnc3c2)ccc1F` [compound 225, 4-((6-(4-Fluoro-3-methylphenyl)-5-(quinoxalin-6-yl)pyridin-3-yl)methyl)morpholine], the IC50 stood at 9.46 µM.
Consider `Cc1cc(-c2ncc(CN(C)C)cc2-c2ccc3nccnc3c2)ccc1F` [compound 226, 1-(6-(4-Fluoro-3-methylphenyl)-5-(quinoxalin-6-yl)pyridin-3-yl)-N,N-dimethylmethanamine], for which the IC50 was 10 µM.
For `COCc1cnc(-c2ccc(F)c(C)c2)c(-c2ccc3nccnc3c2)c1` [compound 228, 6-(2-(4-Fluoro-3-methylphenyl)-5-(methoxymethyl)pyridin-3-yl)quinoxaline] the value was 9.76 µM; for `Cc1cc(-c2ncc(CN3CCN(C)CC3)cc2-c2ccc3nccnc3c2)ccc1F` [compound 230, 6-(2-(4-Fluoro-3-methylphenyl)-5-((4-methylpiperazin-1-yl)methyl)pyridin-3-yl)quinoxaline], 10.8 µM; for `Cc1cc(-c2ncc(COCC(=O)N(C)C)cc2-c2ccc3nccnc3c2)ccc1F` [compound 231, 2-((6-(4-Fluoro-3-methylphenyl)-5-(quinoxalin-6-yl)pyridin-3-yl)methoxy)-N,N-dimethylacetamide], 10.8 µM.
With `CNC(=O)COCc1cnc(-c2ccc(F)c(C)c2)c(-c2ccc3nccnc3c2)c1` [compound 232, 2-((6-(4-Fluoro-3-methylphenyl)-5-(quinoxalin-6-yl)pyridin-3-yl)methoxy)-N-methylacetamide] the figure was 10.6 µM.
Turning to `Cc1cc(-c2ncc(COCC(N)=O)cc2-c2ccc3nccnc3c2)ccc1F` [compound 233, 2-((6-(4-Fluoro-3-methylphenyl)-5-(quinoxalin-6-yl)pyridin-3-yl)methoxy)acetamide], the IC50 is 6.69 µM.
